Test results: patent US7875634B2, “Cyano anthranilamide insecticides” (E. I. du Pont de Nemours and Company, priority 2003, dated 2011)

Legend:
Format in all cases: in vivo
[1] = test system: cotton melon aphid (Aphis gossypii); experiment: Test E: control of cotton melon aphid through contact and/or systemic means, spray on cotton; conditions: 144 h
Excerpt: For evaluating control of cotton melon aphid (Aphis gossypii) through contact and/or systemic means, the test unit consisted of a small open container with a 6-7-day-old cotton plant inside. This was pre-infested with 30-40 insects on a piece of leaf according to the cut-leaf method described for Test C, and the soil of the test unit was covered with a layer of sand.
Test compounds were formulated and sprayed at 250 ppm as described for Test D. The applications were replicated three times. After spraying, the test units were maintained in a growth chamber and then visually rated as described for Test D.

[2] = test system: potato leafhopper (Empoasca fabae Harris); experiment: Test D: control of potato leafhopper through contact and/or systemic means, spray on bean plant; conditions: 144 h
Protocol: For evaluating control of potato leafhopper (Empoasca fabae Harris) through contact and/or systemic means, the test unit consisted of a small open container with a 5-6 day old Longio bean plant (primary leaves emerged) inside. White sand was added to the top of the soil and one of the primary leaves was excised prior to application. Test compounds were formulated and sprayed at 250 ppm and replicated three times as described for Test C. After spraying, the test units were allowed to dry for 1 hour before they were post-infested with 5 potato leafhoppers (18 to 21 day old adults). A black, screened cap was placed on the top of the cylinder. The test units were held for 6 days in a growth chamber at 19-21° C. and 50-70% relative humidity. Each test unit was then visually assessed for insect mortality.

[3] = test system: potato leafhopper (Empoasca fabae); experiment: Test 1 (I): xylem movement from soil application, potato leafhopper mortality (bean); conditions: for % PLH M (potato leafhopper mortality): 1000 ppm, 1 mL to soil at base of bean plant, infested after 2 days, held 5 additional days
Excerpt: (§1) For evaluating movement of compounds in plants and control of green peach aphid (Myzus persicae) and potato leafhopper (Empoasca fabae) after xylem movement of compound from soil application up through roots into foliage, the test unit consisted of a small open container with a 12-15-day-old radish plant (for green peach aphid test) or 5-6-day-old Longio bean plant (for potato leafhopper test).
(§2) Test compounds were formulated using a solution containing 10% acetone, 90% water and 600 ppm X-77® Spreader Lo-Foam Formula non-ionic surfactant containing alkylarylpolyoxyethylene, free fatty acids, glycols and isopropanol (Loveland Industries, Inc.). The formulated compounds were applied in 1 mL of solution by pipet to the soil at the base of the plant. All experimental compounds in this screen were applied at 1000 ppm, and the tests were replicated three times. After applying the formulated test compounds, each test unit was allowed to dry for 1 h. The soil of each test unit was covered with a layer of sand and then a black, screened cap was placed on top. The test units were held in a growth chamber at about 20° C. and 50-70% relative humidity.
(§3) After 2 days, the plants were then infested with 20-30 aphids (radish) or 20 leafhoppers (bean) and held in the growth chamber for 5 additional days. Each test unit was then visually assessed for mortality of the insects, which had contacted and fed on the untreated plant foliage.

[4] = test system: potato leafhopper (Empoasca fabae); experiment: Test H: foliar movement of compound through the plant, potato leafhopper mortality (bean); conditions: applied at 1000 ppm, 20 microliters by pipet to two leaves of bean plant; infested after 2 days, held 8 additional days; insects fed on untreated plant tissues
Excerpt: as §1, with “foliar” for “xylem”, “compound” for “compound from soil application up”, “the plant,” for “roots into foliage,”, “5-6 day old” for “5-6-day-old”
as §2, with “20 microliters” for “1 mL of solution”, “two larger photosynthetically active leaves.” for “the soil at the base of the plant.”, “the” for “each test unit was allowed to dry for 1 h. The”, “sand and each test unit was allowed to dry for 1 hr” for “sand”
(§4) After 2 days, the treated leaves were covered on all sides with a fine plastic mesh, but with the leaf petiole intact and still attached to the plant to allow normal vascular movement and photosynthesis. The plants were then infested with 20-30 aphids (radish) or 20 leafhoppers (bean) and held in the growth chamber for 8 additional days. Each test unit was then visually assessed for mortality of the insects, which had contacted and fed on the untreated plant tissues.

[5] = test system: corn planthopper (Peregrinus maidis); experiment: Test F: control of corn planthopper through contact and/or systemic means, spray on corn; conditions: 144 h
Protocol: For evaluating control of corn planthopper (Peregrinus maidis) through contact and/or systemic means, the test unit consisted of a small open container with a 3-4 day old corn (maize) plant (spike) inside. White sand was added to the top of the soil prior to application. Test compounds were formulated and sprayed at 250 ppm and replicated three times as described for Test C. After spraying, the test units were allowed to dry for 1 hour before they were post-infested with 10-20 corn planthoppers (18- to 20-day old nymphs) by sprinkling them onto the sand with a salt shaker. A black, screened cap was placed on the top of the cylinder. The test units were held for 6 days in a growth chamber at 19-21° C. and 50-70% relative humidity. Each test unit was then visually assessed for insect mortality.

[6] = test system: green peach aphid (Myzus persicae); experiment: Test 1 (I): xylem movement from soil application, green peach aphid mortality (radish); conditions: for % GPA M (green peach aphid mortality): 1000 ppm, 1 mL to soil at base of radish plant, infested after 2 days, held 5 additional days
Excerpt: as §1, §2, §3

[7] = test system: green peach aphid (Myzus persicae); experiment: Test C: control of green peach aphid through contact and/or systemic means, spray on radish; conditions: 144 h
Excerpt: For evaluating control of green peach aphid (Myzus persicae) through contact and/or systemic means, the test unit consisted of a small open container with a 12-15-day-old radish plant inside. This was pre-infested by placing on a leaf of the test plant 30-40 aphids on a piece of leaf excised from a culture plant (cut-leaf method). The larvae moved onto the test plant as the leaf piece desiccated. After pre-infestation, the soil of the test unit was covered with a layer of sand.
Test compounds were formulated using a solution containing 10% acetone, 90% water and 300 ppm X-77® Spreader Lo-Foam Formula non-ionic surfactant containing alkylarylpolyoxyethylene, free fatty acids, glycols and isopropanol (Loveland Industries, Inc.). The formulated compounds were applied in 1 mL of liquid through a SUJ2 atomizer nozzle with ⅛ JJ custom body (Spraying Systems Co.) positioned 1.27 cm (0.5 inches) above the top of each test unit. All experimental compounds in this screen were sprayed at 250 ppm, replicated three times. After spraying of the formulated test compound, each test unit was allowed to dry for 1 hour and then a black, screened cap was placed on top. The test units were held for 6 days in a growth chamber at 19-21° C. and 50-70% relative humidity. Each test unit was then visually assessed for insect mortality.

[8] = test system: green peach aphid (Myzus persicae); experiment: Test H: foliar movement of compound through the plant, green peach aphid mortality (radish); conditions: applied at 1000 ppm, 20 microliters by pipet to two leaves of radish plant; infested after 2 days, held 8 additional days; insects fed on untreated plant tissues
Excerpt: as §1, with “foliar” for “xylem”, “compound” for “compound from soil application up”, “the plant,” for “roots into foliage,”, “5-6 day old” for “5-6-day-old”
as §2, with “20 microliters” for “1 mL of solution”, “two larger photosynthetically active leaves.” for “the soil at the base of the plant.”, “the” for “each test unit was allowed to dry for 1 h. The”, “sand and each test unit was allowed to dry for 1 hr” for “sand”
as §4

SMILES: Cc1cc(C#N)cc(C(N)=O)c1NC(=O)c1cc(C(F)(F)F)nn1-c1ncccc1Cl [Compound 1]
- mortality at 250 ppm [1]: ≥ 80%
- mortality at 250 ppm [2]: ≥ 80%
- mortality at 1000 ppm ([3]; Empoasca fabae, soil, read-out: % PLH M (potato leafhopper mortality)): 100%
- % PLH M (potato leafhopper mortality) [4]: 58%
- mortality at 250 ppm [5]: ≥ 80%
- mortality at 1000 ppm ([6]; Myzus persicae, soil, read-out: % GPA M (green peach aphid mortality)): 64%
- mortality at 250 ppm [7]: ≥ 80%
- % GPA M (green peach aphid mortality) [8]: 87%

SMILES: CNC(=O)c1cc(C#N)cc(C)c1NC(=O)c1cc(C(F)(F)F)nn1-c1ncccc1Cl [Compound 2]
- % PLH M (potato leafhopper mortality) [3]: 56%
- % GPA M (green peach aphid mortality) [6]: 64%

SMILES: CNC(=O)c1cc(C#N)cc(C)c1NC(=O)c1cc(Cl)nn1-c1ncccc1Cl [Compound 3]
- % PLH M (potato leafhopper mortality) [4]: 96%
- % GPA M (green peach aphid mortality) [8]: 81%

SMILES: Cc1cc(C#N)cc(C(N)=O)c1NC(=O)c1cc(Cl)nn1-c1ncccc1Cl [Compound 4]
- % PLH M (potato leafhopper mortality) [4]: 93%
- % GPA M (green peach aphid mortality) [8]: 78%

SMILES: CNC(=O)c1cc(C#N)cc(C)c1NC(=O)c1cc(Br)nn1-c1ncccc1Cl [Compound 5]
- % PLH M (potato leafhopper mortality) [3]: 95%
- % PLH M (potato leafhopper mortality) [4]: 96%
- % GPA M (green peach aphid mortality) [6]: 40%
- % GPA M (green peach aphid mortality) [8]: 94%

SMILES: Cc1cc(C#N)cc(C(N)=O)c1NC(=O)c1cc(Br)nn1-c1ncccc1Cl [Compound 6]
- % PLH M (potato leafhopper mortality) [3]: 100%
- % PLH M (potato leafhopper mortality) [4]: 77%
- % GPA M (green peach aphid mortality) [6]: 59%
- % GPA M (green peach aphid mortality) [8]: 100%

SMILES: Cc1cc(C#N)cc(C(=O)NCC#N)c1NC(=O)c1cc(Cl)nn1-c1ncccc1Cl [Compound 26]
- % PLH M (potato leafhopper mortality) [4]: 73%
- % GPA M (green peach aphid mortality) [8]: 67%

SMILES: Cc1cc(C#N)cc(C(=O)NCC#N)c1NC(=O)c1cc(Br)nn1-c1ncccc1Cl [Compound 27]
- % PLH M (potato leafhopper mortality) [4]: 13%
- % GPA M (green peach aphid mortality) [8]: 57%
